Results from patent publication US12048685B2, “Transient receptor potential cation channel subfamily m member 8 (TRPM8) antagonists and methods of use” (Ora, Inc., priority 2015, dated 2024).
Structures can show the parent of a compound that is named as a salt.

Tests used:
[1] = Corneal sensitivity measured by Cochet Bonnet after topical dosing; assay type: in vivo, human
Experimental: (§1) A series of experiments were carried out assessing the clinical signs and symptoms of dry eye disease or severe dry eye disease using a commercially available TRPM8 antagonist, N-(2-Aminoethyl)-N-(4-(benzyloxy)-3-methoxybenzyl)thiophene-2-carboxamide hydrochloride, N-(2-Aminoethyl)-N-[[3-methoxy-4-(phenylmethoxy)phenyl]methyl]-2-thiophenecarboxamide hydrochloride (Sigma Aldrich M8-B hydrochloride (SML0893)), shown below as Compound I, at a concentration of 0.1% (vs placebo), administered unilaterally.
(§2) Post-dose, exposure to Menthol (ROHTO Hydra), as well as to an adverse environment (CAESM), was used to elicit symptomology in 3 patients with healthy eyes. Validated symptom scales were used to collect levels of discomfort secondary to the exposures (Ora Calibra™ Ocular Discomfort Questionnaire, Drop Comfort Questionnaire). A summary of the findings is presented below.
In a first set of experiments, the effect of Compound I on corneal sensitivity was examined. Subjects (shown by initials E-A, KJL, M-C) were dosed with 20 ul of Compound I (0.1%) or a placebo (BSS).

[2] = target: T1, TRPM-8 channels (Homo sapiens, UniProt Q7Z2W7); experiment: Post-menthol treatment symptoms (Drop Discomfort) after dosing, menthol-containing eyedrop (ROHTO Hydra); assay type: in vivo
T1 construct: from tissue; host or cells: eye (ocular surface) of living human subjects
T1 sequence (Q7Z2W7 whole entry): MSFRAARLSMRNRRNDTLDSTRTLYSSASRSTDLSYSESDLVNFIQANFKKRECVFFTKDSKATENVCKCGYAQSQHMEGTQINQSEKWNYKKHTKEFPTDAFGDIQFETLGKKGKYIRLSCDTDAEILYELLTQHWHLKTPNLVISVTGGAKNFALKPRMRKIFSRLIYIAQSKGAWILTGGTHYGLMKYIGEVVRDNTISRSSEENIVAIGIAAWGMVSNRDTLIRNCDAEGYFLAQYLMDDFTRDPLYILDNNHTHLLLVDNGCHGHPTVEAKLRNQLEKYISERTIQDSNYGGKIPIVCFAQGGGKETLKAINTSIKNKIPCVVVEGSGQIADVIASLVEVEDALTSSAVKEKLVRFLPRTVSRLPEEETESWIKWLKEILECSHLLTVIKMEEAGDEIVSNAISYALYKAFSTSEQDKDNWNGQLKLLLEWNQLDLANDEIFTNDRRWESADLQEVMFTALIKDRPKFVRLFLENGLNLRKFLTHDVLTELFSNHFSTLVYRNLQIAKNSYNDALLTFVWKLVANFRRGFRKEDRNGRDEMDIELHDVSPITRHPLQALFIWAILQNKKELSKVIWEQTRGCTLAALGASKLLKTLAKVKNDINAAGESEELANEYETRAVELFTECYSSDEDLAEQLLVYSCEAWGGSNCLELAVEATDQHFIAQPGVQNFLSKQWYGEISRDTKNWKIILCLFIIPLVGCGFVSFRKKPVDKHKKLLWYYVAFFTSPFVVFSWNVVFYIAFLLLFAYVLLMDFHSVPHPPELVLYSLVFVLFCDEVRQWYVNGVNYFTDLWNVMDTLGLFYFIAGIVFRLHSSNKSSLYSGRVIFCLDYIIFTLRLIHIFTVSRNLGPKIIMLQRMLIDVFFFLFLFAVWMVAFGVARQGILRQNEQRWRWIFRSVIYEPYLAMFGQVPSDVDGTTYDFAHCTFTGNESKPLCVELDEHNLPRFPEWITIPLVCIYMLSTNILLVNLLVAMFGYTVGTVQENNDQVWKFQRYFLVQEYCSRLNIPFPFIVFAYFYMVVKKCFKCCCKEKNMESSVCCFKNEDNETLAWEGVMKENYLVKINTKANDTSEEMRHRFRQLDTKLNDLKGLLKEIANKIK
Description: Post-dose, exposure to Menthol (ROHTO Hydra), as well as to an adverse environment (CAESM), was used to elicit symptomology in 3 patients with healthy eyes. Validated symptom scales were used to collect levels of discomfort secondary to the exposures (Ora Calibra™ Ocular Discomfort Questionnaire, Drop Comfort Questionnaire). A summary of the findings is presented below. The effect of topical menthol application after dosing with Compound I or placebo was examined. After dosing with Compound I or placebo, 1 drop menthol-containing OTC eyedrop were administered bilaterally (ROHTO Hydra). Menthol is known to act upon TRPM-8 channels, effectively causing neural activity similar in nature to exposure to cold temperature. As such, menthol was used to induce a “cooling” symptom. […] Baseline (pre-menthol) symptoms were “0” for each eye, for all 3 subjects (data not shown).

[3] = Ocular discomfort on exposure to a Controlled Adverse Environment (CAE); assay type: in vivo, human; settings: CAE for 25 minutes, asked every 5 minutes, p<0.01, FIGS. 4A and B
Experimental: as §1, §2
The effect of CAE exposure after dosing with Compound I or placebo was examined. After dosing with Compound I or placebo, subjects were exposed to a Controlled Adverse Environment (CAE) for 25 minutes, in order to elicit symptomology similar in nature to dry eye symptoms. An Ocular Discomfort Questionnaire (0-4 scale) was asked every 5 minutes.

[4] = Ocular discomfort on exposure to Turbo-CAE after CAE (severe dry eye symptoms); assay type: in vivo, human; settings: 15 minutes of Turbo-CAE after 25-minute CAE, p<0.01, FIGS. 5A and B
Experimental: as §1, §2
Next, the effect of Turbo-CAE exposure after dosing with Compound I or placebo was examined. After 25-minute Controlled Adverse Environment (CAE) exposure, subjects were exposed to 15 minutes of Turbo-CAE, in order to elicit symptomology similar in nature to severe dry eye symptoms. An Ocular Discomfort Questionnaire (0-4 scale) was asked every 5 minutes.

[5] = system: Balb/C mice; settings: 15 minutes and 24 hours post TRPM8 antagonist dose (0.01%, 0.05%, 0.10%), immediately post menthol dose, water control, FIG. 6
Experimental: Behavioral endpoints, e.g. blinking for balb/cs nice, was tested. […] Treatment of the mice with water was used as a control. TRPM8 antagonist was used at concentrations of 0.01%, 0.05% and 0.10%.

effect on corneal sensitivity ([1]; 20 ul of 0.1%, unilateral, vs placebo (BSS), 3 subjects with healthy eyes, Cochet Bonnet, FIG. 2)	decrease in sensitivity ([1]; Subject, 70 mm to 65 mm, 20 ul of 0.1%) [mm]	changes in sensitivity ([1]; Subjects E-A and M-C, 20 ul of 0.1%)	difference in corneal sensitivity pre- to post-dose ([1]; p=0.42, 3 subjects)	action of menthol (cooling symptom) ([2]; 0.1% dosed before 1 drop menthol-containing OTC eyedrop bilaterally, FIGS. 3A and B)	Compound	subject-reported symptom scores (Drop Discomfort, 0-10 scale) vs placebo ([2]; post-menthol, treated eye vs placebo eye, p<0.01, 3 subjects)	symptom scores (Ocular Discomfort Questionnaire, 0-4 scale) vs placebo [3]	symptom scores (Ocular Discomfort Questionnaire, 0-4 scale) vs placebo [4]	blink rate per minute [5]
minimal effect	5	no detectable changes	No significant difference	effectively block the action of menthol	COc1cc(CN(CCN)C(=O)c2cccs2)ccc1OCc1ccccc1 [Compound I, N-(2-Aminoethyl)-N-(4-(benzyloxy)-3-methoxybenzyl)thiophene-2-carboxamide hydrochloride]	significantly lower symptom scores than placebo	significantly lower symptom scores than placebo	significantly lower symptom scores than placebo	
					CC1CCC(C(C)C)C(O)C1 (stereo not shown) [menthol]				increase in blink rate
					N-(2-Aminoethyl)-N-(4-(benzyloxy)-3-methoxybenzyl)thiophene-2-carboxamide hydrochloride [Compound I]				reproducibly blocked
